According to ChEMBL document CHEMBL3217523, “Design and syntheses of some iminosugar derivatives as potential immunosuppressants” (Medchemcomm, 2011):
Active and inactive are the calls of the source. The calls are words filed in the database; no cut-off is given here.

Tests used:
[1] = (§1) Antiproliferative activity against Con A-induced BALB/c mouse splenocytes at 30 uM after 48 hrs by CCK-8 method relative to control; format: functional; settings: Splenocyte
Splenocyte = assay: as §1; format: functional
[2] = Antiproliferative activity against Con A-induced BALB/c mouse splenocytes after 48 hrs by CCK-8 method relative to control; format: functional, cell-based; settings: Splenocyte
[3] = Cytotoxicity against BALB/c mouse splenocytes up to 110 uM after 48 hrs by CCK-8 method; format: cell-based; settings: splenocyte

Compound | inhibition at 30 µM [1] [%] | also measured
OCCC[C@H]1N[C@H](CO)[C@H](O)[C@H](O)[C@H]1O | 14.6 | –
OC[C@H]1C[C@@H](O)[C@@H](O)[C@@H](CO)N1 | 22.3 | –
OC[C@@H]1N[C@H](CO)[C@H](O)[C@@H](O)[C@H]1O | 9.7 | –
CCCCCCN1[C@H](CO)[C@H](O)[C@H](O)[C@@H](O)[C@H]1CCl | 38.9 | –
OC[C@H]1N[C@H](CCl)[C@H](O)[C@@H](O)[C@H]1O | 20.8 | –
N#CC[C@H]1N[C@H](CO)[C@H](O)[C@H](O)[C@H]1O | 27.9 | –
OCCC[C@H]1N[C@@H](CO)[C@H](O)[C@H](O)[C@H]1O | 19.3 | –
O=C(O)CC[C@H]1N[C@H](CO)[C@H](O)[C@H](O)[C@H]1O | 4.9 | –
CCCCCCN1[C@H](CO)[C@H](O)C(O)[C@@H](O)[C@H]1CO (stereo not given in full) | 25.5 | –
O=C(O)[C@H]1N[C@@H](CO)[C@H](O)[C@H](O)[C@H]1O | – | inhibition (Splenocyte): inactive
OC[C@H]1N[C@H](CO)[C@H](O)C(O)[C@H]1O (stereo not given in full) | 7.8 | –
CCCCCCCCCN1[C@H](CO)[C@H](O)[C@H](O)[C@@H](O)[C@H]1CCl | 54.1 | IC50 [2]: 22 µM; Activity [3]: Non-toxic
CCCCCCCCCN1[C@H](CCl)[C@H](O)[C@@H](O)[C@@H](O)[C@@H]1CO | 43.6 | IC50 [2]: 45 µM; Activity [3]: Non-toxic
O=C(O)[C@@H]1N[C@@H](CO)[C@H](O)[C@H](O)[C@H]1O | 21.2 | –
O=C(O)[C@H]1N[C@H](CO)[C@H](O)[C@H](O)[C@H]1O | 7.2 | –
O=C(O)CC[C@H]1N[C@@H](CO)[C@H](O)[C@H](O)[C@H]1O | 6.4 | –
